Assay results published in ChEMBL document CHEMBL4396887, “Five-Membered N-Heterocyclic Scaffolds as Novel Amino Bioisosteres at γ-Aminobutyric Acid (GABA) Type A Receptors and GABA Transporters” (J Med Chem, 2019).
Activity calls are given as the source filed them.

How the values were obtained:
[1] = molecular target: T1, Sodium- and chloride-dependent betaine transporter (Homo sapiens) (UniProt P48065); assay: Inhibition of human BGT1 expressed in Flp-In CHO cells assessed as reduction in [3H]GABA uptake at 100 uM incubated for 3 mins by liquid scintillation counting method relative to control; assay type: cell-based
T1 sequence (whole entry): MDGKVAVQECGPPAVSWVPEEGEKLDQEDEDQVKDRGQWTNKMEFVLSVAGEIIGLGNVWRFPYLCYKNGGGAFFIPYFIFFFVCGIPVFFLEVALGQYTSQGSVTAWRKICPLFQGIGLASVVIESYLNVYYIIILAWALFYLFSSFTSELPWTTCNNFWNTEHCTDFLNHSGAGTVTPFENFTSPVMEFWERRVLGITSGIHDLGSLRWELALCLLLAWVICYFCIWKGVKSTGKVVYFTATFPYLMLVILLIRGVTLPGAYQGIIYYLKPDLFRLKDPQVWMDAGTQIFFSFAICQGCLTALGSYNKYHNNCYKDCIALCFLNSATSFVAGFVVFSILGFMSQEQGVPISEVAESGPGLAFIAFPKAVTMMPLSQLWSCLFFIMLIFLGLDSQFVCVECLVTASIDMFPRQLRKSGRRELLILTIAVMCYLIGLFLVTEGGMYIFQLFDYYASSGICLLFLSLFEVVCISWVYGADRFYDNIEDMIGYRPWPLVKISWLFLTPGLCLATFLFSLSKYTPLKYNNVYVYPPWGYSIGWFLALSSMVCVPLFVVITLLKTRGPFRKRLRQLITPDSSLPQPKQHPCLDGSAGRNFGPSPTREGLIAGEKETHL

[2] = molecular target: Gamma-aminobutyric acid receptor subunit alpha-5/beta-2/gamma-2 (Homo sapiens) (UniProt P47870+P18507+P31644); assay: Agonist activity at recombinant human GABA-A alpha5beta2gamma2S receptor transiently expressed in human tsA201 cells assessed as GABA-induced maximum response incubated for 30 mins and measured up to 90 secs by FMP dye based FLIPR membrane potential blue assay relative to GABA; assay type: cell-based
Homo sapiens [3] = species: Homo sapiens; assay: Agonist activity at recombinant human GABA-A alpha3beta2gamma2S receptor transiently expressed in human tsA201 cells assessed as GABA-induced maximum response incubated for 30 mins and measured up to 90 secs by FMP dye based FLIPR membrane potential blue assay relative to GABA; assay type: cell-based
[4] = molecular target: Sodium- and chloride-dependent GABA transporter 1 (Homo sapiens, UniProt P30531); assay: Inhibition of human GAT1 expressed in Flp-In CHO cells assessed as reduction in [3H]GABA uptake at 100 uM incubated for 3 mins by liquid scintillation counting method relative to control; assay type: cell-based
Sodium- and chloride-dependent GABA transporter 1, sequence (P30531 whole entry, looked up): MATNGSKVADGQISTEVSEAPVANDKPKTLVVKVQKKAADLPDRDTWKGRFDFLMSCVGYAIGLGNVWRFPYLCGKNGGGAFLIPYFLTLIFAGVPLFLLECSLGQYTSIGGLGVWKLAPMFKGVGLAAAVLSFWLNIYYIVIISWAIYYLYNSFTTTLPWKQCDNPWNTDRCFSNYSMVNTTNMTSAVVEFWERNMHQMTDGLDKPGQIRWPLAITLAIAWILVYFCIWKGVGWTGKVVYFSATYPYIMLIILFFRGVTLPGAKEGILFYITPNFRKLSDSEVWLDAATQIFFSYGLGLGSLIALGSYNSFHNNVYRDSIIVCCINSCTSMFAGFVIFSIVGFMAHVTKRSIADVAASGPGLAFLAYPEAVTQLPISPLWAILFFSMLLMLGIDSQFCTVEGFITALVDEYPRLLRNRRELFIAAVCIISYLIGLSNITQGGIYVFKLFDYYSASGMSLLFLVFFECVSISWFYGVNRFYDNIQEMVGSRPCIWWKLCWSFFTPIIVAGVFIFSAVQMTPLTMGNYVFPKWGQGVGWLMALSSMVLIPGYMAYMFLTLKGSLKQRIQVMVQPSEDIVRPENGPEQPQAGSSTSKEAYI

[5] = molecular target: T2, Gamma-aminobutyric acid receptor subunit alpha-4/beta-2/gamma-2 (Homo sapiens, UniProt P47870+P18507+P48169); assay: Agonist activity at recombinant human GABA-A alpha4beta2gamma2S receptor transiently expressed in human tsA201 cells assessed as GABA-induced maximum response incubated for 30 mins and measured up to 90 secs by FMP dye based FLIPR membrane potential blue assay relative to GABA; assay type: cell-based
Homo sapiens [6] = species: Homo sapiens
[7] = molecular target: T3, Sodium- and chloride-dependent GABA transporter 3 (Homo sapiens) (UniProt P48066); assay: Inhibition of human GAT3 expressed in Flp-In CHO cells assessed as reduction in [3H]GABA uptake at 100 uM incubated for 3 mins by liquid scintillation counting method relative to control; assay type: cell-based
T3 sequence (whole entry): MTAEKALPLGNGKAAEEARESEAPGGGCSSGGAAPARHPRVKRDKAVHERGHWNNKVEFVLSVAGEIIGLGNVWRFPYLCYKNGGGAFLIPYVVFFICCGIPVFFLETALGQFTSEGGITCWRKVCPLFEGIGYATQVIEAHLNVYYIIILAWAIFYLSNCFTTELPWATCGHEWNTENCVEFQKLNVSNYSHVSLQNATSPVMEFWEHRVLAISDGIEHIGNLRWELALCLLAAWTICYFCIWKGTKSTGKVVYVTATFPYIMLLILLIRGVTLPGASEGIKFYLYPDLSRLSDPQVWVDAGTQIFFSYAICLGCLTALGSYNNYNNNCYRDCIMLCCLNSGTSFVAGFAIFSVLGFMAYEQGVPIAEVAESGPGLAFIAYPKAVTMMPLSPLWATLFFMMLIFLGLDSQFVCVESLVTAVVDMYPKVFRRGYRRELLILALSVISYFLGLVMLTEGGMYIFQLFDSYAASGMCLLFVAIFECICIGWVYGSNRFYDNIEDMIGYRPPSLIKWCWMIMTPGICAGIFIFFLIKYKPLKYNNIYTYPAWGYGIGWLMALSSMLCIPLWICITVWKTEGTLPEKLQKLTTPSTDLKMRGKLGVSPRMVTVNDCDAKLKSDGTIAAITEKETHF

[8] = molecular target: T4, GABA-A receptor; alpha-1/beta-2/gamma-2 (Homo sapiens) (UniProt P14867+P47870+P18507); assay: Agonist activity at recombinant human GABA-A alpha1beta2gamma2S receptor transiently expressed in human tsA201 cells assessed as GABA-induced maximum response incubated for 30 mins and measured up to 90 secs by FMP dye based FLIPR membrane potential blue assay relative to GABA; assay type: cell-based
[9] = molecular target: T4, GABA-A receptor; alpha-1/beta-2/gamma-2 (Homo sapiens); assay: Agonist activity at recombinant human GABA-A alpha1beta2gamma2S receptor transiently expressed in human tsA201 cells incubated for 30 mins and measured up to 90 secs by FMP dye based FLIPR membrane potential blue assay; assay type: cell-based
[10] = molecular target: T2, Gamma-aminobutyric acid receptor subunit alpha-4/beta-2/gamma-2; assay: Agonist activity at recombinant human GABA-A alpha4beta2gamma2S receptor transiently expressed in human tsA201 cells incubated for 30 mins and measured up to 90 secs by FMP dye based FLIPR membrane potential blue assay; assay type: cell-based
[11] = molecular target: T5, Sodium- and chloride-dependent GABA transporter 2 (Homo sapiens) (UniProt Q9NSD5); assay: Inhibition of human GAT2 expressed in Flp-In CHO cells assessed as reduction in [3H]GABA uptake at 100 uM incubated for 3 mins by liquid scintillation counting method relative to control; assay type: cell-based
T5 sequence (whole entry): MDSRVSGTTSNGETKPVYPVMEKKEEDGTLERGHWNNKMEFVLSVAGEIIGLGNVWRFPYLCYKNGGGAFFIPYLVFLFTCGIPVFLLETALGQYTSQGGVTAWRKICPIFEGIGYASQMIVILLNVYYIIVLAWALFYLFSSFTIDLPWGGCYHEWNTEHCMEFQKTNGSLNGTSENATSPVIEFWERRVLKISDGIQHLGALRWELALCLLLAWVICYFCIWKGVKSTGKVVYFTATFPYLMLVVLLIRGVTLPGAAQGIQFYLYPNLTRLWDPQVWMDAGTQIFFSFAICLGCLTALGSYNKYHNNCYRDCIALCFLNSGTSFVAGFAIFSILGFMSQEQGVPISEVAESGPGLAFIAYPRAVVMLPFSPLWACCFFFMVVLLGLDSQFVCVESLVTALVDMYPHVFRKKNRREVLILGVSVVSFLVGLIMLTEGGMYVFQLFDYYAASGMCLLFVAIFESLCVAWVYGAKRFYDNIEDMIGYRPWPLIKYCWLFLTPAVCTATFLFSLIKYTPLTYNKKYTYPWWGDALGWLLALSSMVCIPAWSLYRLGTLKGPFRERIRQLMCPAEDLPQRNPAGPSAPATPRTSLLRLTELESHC

[12] = molecular target: Gamma-aminobutyric acid receptor subunit rho-1 (Homo sapiens, UniProt P24046); assay: Agonist activity at recombinant human GABA-A rho-1 receptor transiently expressed in human tsA201 cells assessed as GABA-induced maximum response incubated for 30 mins and measured up to 90 secs by FMP dye based FLIPR membrane potential blue assay relative to GABA; assay type: cell-based
Gamma-aminobutyric acid receptor subunit rho-1, sequence (P24046 whole entry): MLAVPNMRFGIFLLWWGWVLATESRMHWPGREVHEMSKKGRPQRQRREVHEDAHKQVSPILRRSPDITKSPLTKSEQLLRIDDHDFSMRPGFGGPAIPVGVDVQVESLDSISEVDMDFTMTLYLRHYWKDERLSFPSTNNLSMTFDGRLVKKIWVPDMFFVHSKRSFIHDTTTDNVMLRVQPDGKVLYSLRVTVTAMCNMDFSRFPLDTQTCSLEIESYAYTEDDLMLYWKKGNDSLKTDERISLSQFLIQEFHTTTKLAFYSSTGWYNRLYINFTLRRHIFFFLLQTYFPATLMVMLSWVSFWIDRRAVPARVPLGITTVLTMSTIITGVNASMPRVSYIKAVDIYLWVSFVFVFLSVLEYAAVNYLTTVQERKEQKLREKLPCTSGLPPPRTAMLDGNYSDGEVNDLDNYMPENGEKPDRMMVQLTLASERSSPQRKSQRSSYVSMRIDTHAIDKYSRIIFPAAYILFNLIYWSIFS

[13] = molecular target: T2, Gamma-aminobutyric acid receptor subunit alpha-4/beta-2/gamma-2; assay: Agonist activity at recombinant human GABA-A alpha4beta2gamma2S receptor transiently expressed in human tsA201 cells at >= 100 uM incubated for 30 mins and measured up to 90 secs by FMP dye based FLIPR membrane potential blue assay; assay type: cell-based
[14] = molecular target: T4, GABA-A receptor; alpha-1/beta-2/gamma-2 (Homo sapiens); assay: Agonist activity at recombinant human GABA-A alpha1beta2gamma2S receptor transiently expressed in human tsA201 cells at >= 10 uM incubated for 30 mins and measured up to 90 secs by FMP dye based FLIPR membrane potential blue assay; assay type: cell-based
Homo sapiens [15] = species: Homo sapiens; assay: Agonist activity at recombinant human GABA-A alpha3beta2gamma2S receptor transiently expressed in human tsA201 cells at >= 30 uM incubated for 30 mins and measured up to 90 secs by FMP dye based FLIPR membrane potential blue assay; assay type: cell-based

CC(C(=O)O)C1CSC(N)=N1 (stereo in doubt; l-10b)
active: Activity [13] | Activity [14] | Activity (Homo sapiens [15])
31%: Rmax [12]
inactive: Rmax (Homo sapiens [3]) | Rmax [5] | pEC50 (Homo sapiens [6]) | Rmax [8] | pEC50 [9] | pEC50 [10]
> 30%: inhibition [1] | inhibition [4] | inhibition [7] | inhibition [11]
34%: Rmax [2]
